In patent publication US5025015A, “Thioformamidines, and use as medicaments” (Pierre Fabre Medicament, priority 1988, dated 1991):

Tests used:
[1] = tested on: gastric secretion; assay: gastric secretion by ligature of the pylorus using Shay's technique, male Sprague-Dawley rats; format: in vivo; details: rat, intraduodenal route, 50 mg/kg, acute
Protocol: 1. […] Acute treatment by intraduodenal route in a dose of 50 mg/kg.

[2] = tested on: ulcers with acetyl salicylic acid; assay: activity toward ulcers with acetyl salicylic acid quantified in accordance with the Pfeiffer scale, male rats; format: in vivo; details: orally, acute

Molecule | % Variation: decrease of the volume secreted [1] [%] | % Variation: increase of the intragastric pH [1] [%] | % Inhibition of the ulcer lesions ([2]; dose 40 mg/kg) [%] | % Inhibition of the ulcer lesions ([2]; dose 50 mg/kg) [%]
CN(C(=O)CSc1ncc[nH]1)c1ccc(Cl)cc1C(=O)c1ccccc1Cl [Product 7] | 70 | 118 | 46 | –
CN(C(=O)CSC(=N)N)c1ccc(Cl)cc1C(=O)c1ccccc1Cl [Product 16] | 79 | 153 | – | 32
N-methyl 2'-(orthochloro-α-hydroxybenzyl)-4'-chloro 2-[2-(Δ2-imidazolinyl)thio]acetanilide [Product 11] | 76 | 267 | – | –
CN(C(=O)CSC1=NCCN1)c1ccc(Cl)cc1Cc1ccccc1 [Product 12] | – | – | 40 | –
CNC(=NCCSCc1nc[nH]c1C)NC#N [Cimetidine, N-Cyano-N'-methyl-N''-[2-[[(5-methyl-1H-imidazol-4-yl)methyl]thio]ethyl]guanidine, reference compound] | 47 | 90 | 46 | –
N-methyl 2-[2-(Δ2-imidazolinyl)thio]2'-benzoyl-4'-chloroacetanilide hydrochloride [Product 2] | 76 | 158 | 34 | –
CN(C(=O)CSc1ncc[nH]1)c1ccc(Cl)cc1C(=O)c1ccccc1 [Product 15] | 50 | 181 | – | 35
